Experimental data reported in ChEMBL document CHEMBL1132045, “New growth hormone secretagogues: C-terminal modified sulfonamide-analogues of NN703” (Bioorg Med Chem Lett, 1999).

Species on record: Rattus norvegicus
Test: Compound was tested in vitro for growth hormone release in rat pituitary model
Type: functional

SMILES	EC50 [nM]
CN(C(=O)[C@@H](Cc1ccc2ccccc2c1)N(C)C(=O)/C=C/CC(C)(C)N)[C@H](Cc1cccs1)CN(C)S(C)(=O)=O	3
CC(=O)NC[C@@H](Cc1ccccc1)N(C)C(=O)[C@@H](Cc1ccc2ccccc2c1)N(C)C(=O)/C=C/CC(C)(C)N	25
CN(C(=O)[C@@H](Cc1ccc2ccccc2c1)N(C)C(=O)/C=C/CC(C)(C)N)[C@@H](CNC(=O)CCCO)Cc1ccccc1	34
CN(C(=O)[C@@H](Cc1ccc2ccccc2c1)N(C)C(=O)/C=C/CC(C)(C)N)[C@@H](CNS(C)(=O)=O)Cc1ccccc1	2.5
CNC(=O)[C@@H](Cc1ccccc1)N(C)C(=O)[C@@H](Cc1ccc2ccccc2c1)N(C)C(=O)/C=C/CC(C)(C)N [TABIMORELIN]	2.7
